Key:
[1] = biological target: Glyoxalase I (Pseudomonas putida); assay: Binding affinity on Pseudomonas putida glyoxalase I (GlxI) was determined
[2] = biological target: Glyoxalase I (Saccharomyces cerevisiae) (UniProt P50107); assay: Binding affinity on yeast glyoxalase I (GlxI) was determined
Glyoxalase I (Saccharomyces cerevisiae), sequence (P50107 whole entry, looked up): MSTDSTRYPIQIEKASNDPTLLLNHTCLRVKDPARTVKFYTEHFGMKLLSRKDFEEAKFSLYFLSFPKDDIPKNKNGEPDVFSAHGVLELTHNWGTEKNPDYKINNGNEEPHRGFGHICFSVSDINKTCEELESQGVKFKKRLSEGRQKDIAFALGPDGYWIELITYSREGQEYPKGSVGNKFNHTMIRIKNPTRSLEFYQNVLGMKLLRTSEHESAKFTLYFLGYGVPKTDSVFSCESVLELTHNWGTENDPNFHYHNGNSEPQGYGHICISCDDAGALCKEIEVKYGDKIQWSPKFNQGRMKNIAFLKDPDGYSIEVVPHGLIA

Ki [1]: 86 µM
Ki [2]: 68 µM
SMILES: CN(O)C(=O)SC[C@H](NC(=O)CC[C@H](N)C(=O)O)C(=O)NCC(=O)O [S-(N-methyl-N-hydroxycarbamoyl)glutathione]
